According to patent US20100179225A1, “POI Prevention” (CYTOKINE PHARMASCIENCES, INC., priority 2008, published 2010):

What was measured:
[1] = tested on: p38-MAPK; assay: p38-MAPK phosphorylation in ME lysates after intestinal manipulation (immunoblot); type: in vivo, C57BL/6J mice; conditions: 5 mg/kg i.v. preoperative; 30 minutes after operation; compared to placebo group
Description: (§1) The small bowel of the animals was subjected to a standardized, surgical manipulation (IM) as described previously (Kalff J C, Schraut W H, Simmons R L et al. Surgical manipulation of the gut elicits an intestinal muscularis inflammatory response resulting in postsurgical ileus. Ann Surg 1998; 228:652-663; Wehner S, Schwarz N T, Hundsdoerfer R et al. Induction of IL-6 within the rodent intestinal muscularis after intestinal surgical stress. Surgery 2005; 137:436-446). In brief, after anesthesia a midline abdominal incision was made into the peritoneal cavity. The entire small bowel was eventuated and manipulated with standardized moderate intensity using two moist cotton applicators as described previously. After IM, the laparotomy was closed by one layer of continuous suture, except when probe sampling was conducted within 20 minutes after surgery. […]
(§2) p38-MAPK and JNK/SAPK phosphorylation were analyzed in C57BL/6J mice 15, 30 and 60 minutes after IM and in unoperated controls. […] Finally, the sonicated samples were centrifuged at 13.000×g for 10 minutes, and total protein concentration was determined with Pierce BCA protein assay (Perbio, Bonn, Germany). […]
(§3) After PAGE, proteins were blotted on Immobilon-P […] PVDF membranes. […] Chemiluminscence signals were detected with a LAS 4000 system (Fujifilm, Duesseldorf, Germany).

[2] = tested on: JNK/SAPK; assay: JNK/SAPK phosphorylation in ME lysates after intestinal manipulation (immunoblot); type: in vivo, C57BL/6J mice; conditions: 5 mg/kg i.v. preoperative; after IM
Description: as §1, §2, §3

[3] = tested on: MCP-1 mRNA; assay: Proinflammatory gene expression in ME, real-time RT-PCR: MCP-1; type: in vivo, mice; conditions: 5 mg/kg i.v. preoperative
Description: The small bowel of the animals was subjected to a standardized, surgical manipulation (IM) as described previously (Kalff J C, Schraut W H, Simmons R L et al. Surgical manipulation of the gut elicits an intestinal muscularis inflammatory response resulting in postsurgical ileus. Ann Surg 1998; 228:652-663; Wehner S, Schwarz N T, Hundsdoerfer R et al. Induction of IL-6 within the rodent intestinal muscularis after intestinal surgical stress. Surgery 2005; 137:436-446). In brief, after anesthesia a midline abdominal incision was made into the peritoneal cavity. The entire small bowel was eventuated and manipulated with standardized moderate intensity using two moist cotton applicators as described previously. After IM, the laparotomy was closed by one layer of continuous suture, except when probe sampling was conducted within 20 minutes after surgery. These animals were held in anesthesia and the abdomen was closed by a clamp and protected with sterile gauze. All other animals recovered rapidly from the bowel manipulation procedure. Control animals exclusively underwent laparotomy without eventration and IM (sham operation).
Animals within examples referring to FIGS. 2-9 were treated 90 minutes before operation with 0 mg/kg (placebo group), or 5 mg/kg bodyweight CNI-1493. […]
Proinflammatory gene expression was analyzed in placebo and CNI-1493 (5 mg/kg) treated animals at 1, 3, 6 and 24 hours after operation; n=5-7 each group. […] Total RNA was analyzed in ME specimen that was prepared as described before (Wehner S, Behrendt F F, Lyutenski B N et al. Inhibition of macrophage function prevents intestinal inflammation and postoperative ileus in rodents. Gut 2007; 56:176-185). […] Expression of mRNA was quantified in triplicate by a RT-PCR with gene expression assays for […] (MCP-1; #Mm00441242_m1), CCL3 (MIP-1α #Mm00441258_m1), IL-6 (Assay ID #Mm00446190_ml), TNF-α (#Mm00443258_m1) and ICAM-1 (#Mm00516023_m1). […] Data quantification was performed by the ΔΔCT method. […]

[4] = tested on: swine; assay: Intestinal anastomotic healing in swine (bursting pressure, hydroxyproline content); type: in vivo; conditions: 1 mg/kg p.o. 14 hours and 3 hours, or once 2 hours (iv group), before operation, postoperative day 6
Procedure: Swine were fed with 1 mg/kg CPSI-2364 or placebo (2.5% mannitol) 14 hours and 3 hours before operation. In the iv group, 1 mg/kg CPSI 2364 was fed once 2 hours before operation. After premedication animals were intubated and a central venous catheter was applied. A laparotomy was performed under sterile conditions.

Structure (SMILES) | upregulation of p38-MAPK phosphorylation by IM [1] | JNK/SAPK phosphorylation [2] | MCP-1 mRNA expression (fold upregulation) ([3]; 3 hours after IM) [fold] | MCP-1 mRNA expression (fold upregulation) ([3]; 6 hours after IM) [fold] | MCP-1 mRNA expression (fold upregulation) ([3]; 24 hours after IM) [fold] | anastomotic bursting pressure levels vs placebo [4] | anastomotic hydroxyproline content vs placebo [4]
C/C(=N\N=C(N)N)c1cc(NC(=O)CCCCCCCCC(=O)Nc2cc(/C(C)=N/N=C(N)N)cc(/C(C)=N/N=C(N)N)c2)cc(/C(C)=N/N=C(N)N)c1.Cl.Cl.Cl.Cl [CNI-1493] | reduced near to control levels | not affected | 142±45 | 317±143 | 92±44 |  | 
C/C(=N\N=C(N)N)c1cc(NC(=O)CCCCCCCCC(=O)Nc2cc(/C(C)=N/N=C(N)N)cc(/C(C)=N/N=C(N)N)c2)cc(/C(C)=N/N=C(N)N)c1.CS(=O)(=O)O.CS(=O)(=O)O.CS(=O)(=O)O.CS(=O)(=O)O [CPSI-2364] |  |  |  |  |  | No differences were observed | No differences were observed
